These results are taken from patent publication US20190330224A1, “ACC INHIBITORS AND USES THEREOF” (Gilead Apollo, LLC, priority 2015, published 2019).

One experiment deals with C. albicans ATCC 90028. In words: Anti-Fungal Activity Assay (broth microtiter MIC), C. albicans. It is filed as cell-based, Candida albicans. The following applies: Candida albicans, ATCC90028, 48 h, 3 replicates; MIC recorded at 48 h; read-out: MIC C. albicans ATCC 90028. In short, it runs like this: (§1)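 Candida strains were grown from frozen stock on Sabouraud dextrose agar overnight at 35° C, then suspended directly in RPMI 1640+MOPS and quantified against standard curves. Broth microdilution MIC plates followed CLSI M27-A3; MICs were read visually against growth control at 48 h, with a 24 h read added for soraphen.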

The test system of experiment [1] is C. parapsilosis ATCC 22019. In words: Anti-Fungal Activity Assay (broth microtiter MIC), C. parapsilosis. Format: cell-based, Candida parapsilosis. The following applies: Lodderomyces parapsilosis, ATCC22019, 48 h, 3 replicates; MIC recorded at 48 h; read-out: MIC C. parapsilosis ATCC 22019. The procedure, abridged:
as §1

A further experiment relates to C. krusei ATCC 6258. The experiment is described as follows: Anti-Fungal Activity Assay (broth microtiter MIC), C. krusei. It is filed as cell-based, Candida krusei. The following applies: Pichia kudriavzevii, ATCC6258, 48 h, 3 replicates; MIC recorded at 48 h; read-out: MIC C. krusei ATCC 6258. The procedure, abridged: as §1
The next experiment deals with Fungal ACC2 (UniProt Q00955). The following applies: read-out: Fungal ACC2 (IC50, in vitro ACC2 inhibition).
Fungal ACC2, sequence (Q00955 whole entry): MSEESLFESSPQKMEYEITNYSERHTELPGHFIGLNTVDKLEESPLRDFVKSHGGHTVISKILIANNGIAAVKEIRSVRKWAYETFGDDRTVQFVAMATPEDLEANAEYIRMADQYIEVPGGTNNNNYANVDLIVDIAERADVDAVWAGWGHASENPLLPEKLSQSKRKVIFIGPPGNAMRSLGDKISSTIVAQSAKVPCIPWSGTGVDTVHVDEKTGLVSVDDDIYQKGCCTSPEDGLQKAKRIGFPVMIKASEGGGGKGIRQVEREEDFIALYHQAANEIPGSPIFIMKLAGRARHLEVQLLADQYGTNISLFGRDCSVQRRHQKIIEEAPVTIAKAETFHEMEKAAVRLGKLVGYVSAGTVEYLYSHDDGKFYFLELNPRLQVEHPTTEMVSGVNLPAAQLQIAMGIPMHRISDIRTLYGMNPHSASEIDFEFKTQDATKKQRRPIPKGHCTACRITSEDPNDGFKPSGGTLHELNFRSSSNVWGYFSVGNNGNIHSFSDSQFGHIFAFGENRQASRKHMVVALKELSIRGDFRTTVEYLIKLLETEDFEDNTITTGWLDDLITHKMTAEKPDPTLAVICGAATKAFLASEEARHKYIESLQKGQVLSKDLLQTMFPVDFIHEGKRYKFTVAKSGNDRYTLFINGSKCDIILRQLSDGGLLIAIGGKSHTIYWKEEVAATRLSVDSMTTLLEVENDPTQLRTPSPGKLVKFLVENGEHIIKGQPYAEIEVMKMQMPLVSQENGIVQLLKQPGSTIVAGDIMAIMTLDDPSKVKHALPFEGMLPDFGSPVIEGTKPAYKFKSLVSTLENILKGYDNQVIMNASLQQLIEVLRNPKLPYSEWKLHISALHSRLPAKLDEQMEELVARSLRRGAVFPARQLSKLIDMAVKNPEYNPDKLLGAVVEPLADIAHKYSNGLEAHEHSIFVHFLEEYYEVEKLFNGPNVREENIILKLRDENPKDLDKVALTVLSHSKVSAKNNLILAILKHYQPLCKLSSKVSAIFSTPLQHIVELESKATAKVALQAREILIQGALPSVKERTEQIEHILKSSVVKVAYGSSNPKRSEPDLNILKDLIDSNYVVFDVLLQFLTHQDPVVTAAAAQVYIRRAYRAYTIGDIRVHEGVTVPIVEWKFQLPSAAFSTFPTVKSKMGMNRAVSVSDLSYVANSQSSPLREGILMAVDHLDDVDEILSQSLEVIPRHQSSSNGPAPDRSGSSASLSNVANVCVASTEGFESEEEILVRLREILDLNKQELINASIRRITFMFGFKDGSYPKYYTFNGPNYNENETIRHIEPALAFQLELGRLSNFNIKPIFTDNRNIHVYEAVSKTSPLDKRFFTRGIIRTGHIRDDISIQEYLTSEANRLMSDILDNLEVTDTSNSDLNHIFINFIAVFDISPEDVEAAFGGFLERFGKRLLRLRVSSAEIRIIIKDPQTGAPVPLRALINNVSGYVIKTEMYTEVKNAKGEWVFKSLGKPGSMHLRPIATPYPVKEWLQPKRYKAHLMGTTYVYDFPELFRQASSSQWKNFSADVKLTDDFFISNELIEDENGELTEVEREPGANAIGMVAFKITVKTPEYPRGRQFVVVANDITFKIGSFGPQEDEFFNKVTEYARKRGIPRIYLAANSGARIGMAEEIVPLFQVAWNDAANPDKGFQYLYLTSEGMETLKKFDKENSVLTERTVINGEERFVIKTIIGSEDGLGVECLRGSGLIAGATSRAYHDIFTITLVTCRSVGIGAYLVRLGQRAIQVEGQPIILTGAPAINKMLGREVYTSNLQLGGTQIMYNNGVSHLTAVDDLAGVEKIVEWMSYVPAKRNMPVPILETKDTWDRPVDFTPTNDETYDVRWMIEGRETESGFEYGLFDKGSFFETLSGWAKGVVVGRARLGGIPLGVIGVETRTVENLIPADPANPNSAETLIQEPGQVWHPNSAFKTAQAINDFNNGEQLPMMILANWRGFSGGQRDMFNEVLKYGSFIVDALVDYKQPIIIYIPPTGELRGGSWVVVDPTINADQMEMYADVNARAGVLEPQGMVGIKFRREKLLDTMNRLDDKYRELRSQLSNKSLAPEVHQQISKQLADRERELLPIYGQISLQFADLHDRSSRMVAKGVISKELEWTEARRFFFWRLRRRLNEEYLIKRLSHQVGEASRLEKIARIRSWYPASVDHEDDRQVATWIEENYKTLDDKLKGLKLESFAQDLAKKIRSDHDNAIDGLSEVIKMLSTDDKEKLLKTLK
The next experiment relates to Candida glabrata. In words: In vitro antifungal assay (broth microdilution, Micromyx), C. glabrata. To be noted: Nakaseomyces glabratus, ATCC90030, strain 0635 ATCC 90030, 35° C., approximately 24-48 hr. It is filed as cell-based. The protocol:
(§2) Compounds of the present invention were also assayed in an in vitro antifungal assay against Candida glabrata, Candida tropicalis, and Aspergillus fumigatus, performed by Micromyx, a representative procedure of which follows. The test organisms were reference strains acquired from the American Type Culture Collection (ATCC). Upon receipt, the isolates were streaked onto Sabouraud Dextrose Agar (SDA). Colonies were harvested from these plates and a cell suspension was prepared in Sabouraud Dextrose Broth (Becton Dickinson, Sparks, Md.) containing cryoprotectant. Aliquots were then frozen at −80° C. Prior to the assay, the frozen seeds of all yeast isolates to be tested in that session were thawed and streaked for isolation onto SDA and incubated overnight at 35° C. All fungal isolates were previously streaked on SDA and incubated at 35° C. until spore formation occurred, followed by harvesting of the spores in sterile 0.85% saline and enumeration. The spore preps were stored at 4° C. Yeast and fungal isolates were tested in RPMI medium (Catalog No. SH30011.04; Lot No. AYB60287A; HyClone Labs, Logan, Utah) buffered with 0.165 M MOPS (Catalog No. 475898; Lot No. D00165859; CalBiochem, La Jolla, Calif.). The pH of the medium was adjusted to 7.0 with 1 N NaOH, sterile filtered using a 0.2 μm PES filter, and stored at 4° C. until used. All of the above media was prepared and stored according to guidelines from the Clinical and Laboratory Standards Institute (CLSI; 2-4). The broth microdilution assay method essentially followed the procedure described by CLSI (2-4) and employed automated liquid handlers to conduct serial dilutions and liquid transfers. Automated liquid handlers included the Multidrop 384 (Labsystems, Helsinki, Finland) and Biomek 2000 (Beckman Coulter, Fullerton Calif. The wells in columns 2-12 in standard 96-well microdilution plates (Costar 3795) were filled with 150 μl of the correct diluent. These would become the ‘mother plates’ from which ‘daughter’ or test plates would be prepared. The drugs (300 μL at 40× the desired top concentration in the test plates) were dispensed into the appropriate well in Column 1 of the mother plates. The Biomek 2000 was used to make serial two-fold dilutions through Column 11 in the “mother plate”. The wells of Column 12 contained no drug and were the organism growth control wells. The daughter plates were loaded with 185 μL per well of the appropriate test media using the Multidrop 384. The daughter plates were prepared using the Biomek FX which transferred 5 μL of drug solution from each well of a mother plate to the corresponding well of the correct daughter plate in a single step. A standardized inoculum of each organism was prepared per CLSI methods (2-4). For yeast isolates, colonies were picked from the primary plate and a suspension was prepared to equal a 0.5 McFarland turbidity standard. Suspensions were then diluted 1:100 in RPMI 1640 medium, resulting in a final inoculum concentration of 0.5-2.5×10^3 CFU/mL per test well. […] Standardized inoculum suspensions were transferred to compartments of sterile reservoirs divided by length (Beckman Coulter), and the Biomek 2000 was used to inoculate all plates. Daughter plates were placed on the Biomek 2000 in reverse orientation so that plates were inoculated from low to high drug concentration. The Biomek 2000 delivered 10 μL of standardized inoculum into each well of the appropriate daughter plate for an additional 1:20 dilution. Thus, the wells of the daughter plates ultimately contained 185 μL of the appropriate media, 5 μL of drug solution, and 10 μL of inoculum. The final concentration of DMSO (if used as a solvent) in the test well was 2.5%. Plates were stacked 3 high, covered with a lid on the top plate, placed into plastic bags, and incubated at 35° C. for approximately 24-48 hr for all yeast isolates, and 48 hr for all fungal isolates. Plates were viewed from the bottom using a plate viewer. […]

For another experiment, the target named is Human ACC2 (Homo sapiens, UniProt O00763). In words: In vitro ACC2 inhibition assay (ADP-Glo), human ACC2. The following applies: 5 nM ACC2, 20 μM ATP, 20 μM acetyl-CoA. It is filed as biochemical. (In general: ADP-Glo first removes unused ATP, then detects ADP through luciferase.)
Human ACC2, sequence (O00763 whole entry): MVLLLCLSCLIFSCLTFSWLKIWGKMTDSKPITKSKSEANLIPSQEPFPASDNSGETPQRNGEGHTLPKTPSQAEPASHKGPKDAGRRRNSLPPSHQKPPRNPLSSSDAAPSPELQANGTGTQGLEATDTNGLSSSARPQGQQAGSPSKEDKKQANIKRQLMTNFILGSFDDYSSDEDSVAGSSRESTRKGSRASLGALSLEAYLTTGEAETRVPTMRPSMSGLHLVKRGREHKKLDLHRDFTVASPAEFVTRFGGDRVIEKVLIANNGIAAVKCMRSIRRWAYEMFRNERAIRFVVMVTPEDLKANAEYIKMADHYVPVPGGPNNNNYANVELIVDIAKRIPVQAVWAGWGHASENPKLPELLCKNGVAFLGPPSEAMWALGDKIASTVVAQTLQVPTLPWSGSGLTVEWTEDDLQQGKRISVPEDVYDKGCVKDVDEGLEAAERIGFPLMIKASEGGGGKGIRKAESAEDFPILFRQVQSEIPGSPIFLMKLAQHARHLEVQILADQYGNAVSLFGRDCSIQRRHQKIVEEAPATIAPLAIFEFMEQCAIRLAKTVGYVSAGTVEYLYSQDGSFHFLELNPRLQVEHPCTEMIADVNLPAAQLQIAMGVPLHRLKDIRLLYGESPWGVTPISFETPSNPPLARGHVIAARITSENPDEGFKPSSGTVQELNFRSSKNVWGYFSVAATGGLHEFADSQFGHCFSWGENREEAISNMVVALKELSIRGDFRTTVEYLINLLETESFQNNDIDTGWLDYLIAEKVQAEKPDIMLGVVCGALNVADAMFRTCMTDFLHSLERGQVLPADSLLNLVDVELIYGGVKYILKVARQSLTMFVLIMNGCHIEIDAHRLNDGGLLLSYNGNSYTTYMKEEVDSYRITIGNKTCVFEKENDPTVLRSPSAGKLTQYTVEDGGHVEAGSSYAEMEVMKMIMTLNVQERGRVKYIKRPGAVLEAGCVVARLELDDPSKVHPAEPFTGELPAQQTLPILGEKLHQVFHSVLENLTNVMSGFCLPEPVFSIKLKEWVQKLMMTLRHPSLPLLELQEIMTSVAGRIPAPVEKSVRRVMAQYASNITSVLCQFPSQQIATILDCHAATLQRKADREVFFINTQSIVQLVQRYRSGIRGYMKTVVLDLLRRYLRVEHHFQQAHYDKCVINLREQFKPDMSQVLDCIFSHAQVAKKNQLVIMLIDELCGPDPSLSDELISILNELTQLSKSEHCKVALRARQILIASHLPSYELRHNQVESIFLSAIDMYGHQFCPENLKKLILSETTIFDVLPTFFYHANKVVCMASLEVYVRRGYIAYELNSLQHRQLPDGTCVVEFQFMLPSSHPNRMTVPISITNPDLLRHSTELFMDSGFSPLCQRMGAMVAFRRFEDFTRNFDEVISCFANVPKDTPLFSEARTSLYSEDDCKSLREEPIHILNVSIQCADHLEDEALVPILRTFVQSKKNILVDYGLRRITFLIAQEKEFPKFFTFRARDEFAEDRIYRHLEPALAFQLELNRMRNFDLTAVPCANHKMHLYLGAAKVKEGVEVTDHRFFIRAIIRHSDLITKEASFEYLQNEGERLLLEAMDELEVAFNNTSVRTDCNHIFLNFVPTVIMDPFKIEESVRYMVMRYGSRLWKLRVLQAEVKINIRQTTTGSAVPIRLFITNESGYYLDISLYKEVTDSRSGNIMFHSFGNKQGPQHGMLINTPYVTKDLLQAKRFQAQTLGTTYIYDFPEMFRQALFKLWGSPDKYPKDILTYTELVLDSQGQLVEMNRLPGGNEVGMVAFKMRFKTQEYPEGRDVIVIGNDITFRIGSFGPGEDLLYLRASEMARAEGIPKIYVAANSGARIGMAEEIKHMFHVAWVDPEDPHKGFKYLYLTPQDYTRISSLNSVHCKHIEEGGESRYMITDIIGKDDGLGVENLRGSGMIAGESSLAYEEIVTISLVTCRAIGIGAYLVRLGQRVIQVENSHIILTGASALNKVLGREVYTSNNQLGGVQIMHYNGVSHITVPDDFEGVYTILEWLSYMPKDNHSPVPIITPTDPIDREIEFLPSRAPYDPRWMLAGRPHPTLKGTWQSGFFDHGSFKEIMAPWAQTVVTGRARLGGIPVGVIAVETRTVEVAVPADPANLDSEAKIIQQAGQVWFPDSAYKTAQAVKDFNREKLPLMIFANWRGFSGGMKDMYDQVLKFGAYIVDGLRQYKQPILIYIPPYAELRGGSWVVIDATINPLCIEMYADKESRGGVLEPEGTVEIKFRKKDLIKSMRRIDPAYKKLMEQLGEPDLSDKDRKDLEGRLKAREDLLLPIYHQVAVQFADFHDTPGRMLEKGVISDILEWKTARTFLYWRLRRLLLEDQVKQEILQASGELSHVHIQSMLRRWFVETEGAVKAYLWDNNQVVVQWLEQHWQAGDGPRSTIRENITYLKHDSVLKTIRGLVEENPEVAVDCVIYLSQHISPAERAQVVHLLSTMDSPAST
The next experiment concerns Candida tropicalis. The experiment is described as follows: In vitro antifungal assay (broth microdilution, Micromyx), C. tropicalis. It is filed as cell-based. To be noted: ATCC90874, strain 0636 ATCC 90874, 35° C., approximately 24-48 hr. The protocol: as §2
Another experiment deals with Aspergillus fumigatus. In words: In vitro antifungal assay (broth microdilution, Micromyx), A. fumigatus. Format: cell-based. To be noted: 48 hr. The protocol: as §2
The mark [2] stands for this setting: strain 5280 ATCC MYA-3626, 35° C., read-out: MIC, A. fumigatus 5280 ATCC MYA-3626.
Where [3] appears, read: strain 6781 ATCC MYA-4609, 35° C., read-out: MIC, A. fumigatus 6781 ATCC MYA-4609.

≈ marks a conversion by molar mass, not a printed value. Read-outs that look alike come from different tables or passages of the source.

As for `COc1ccc(F)cc1[C@H](Cn1c(=O)n([C@@H]2CCN(C)C2=O)c(=O)c2c(C)c(-n3nccn3)sc21)OC1CCOCC1` [Compound I-36, 1-((R)-2-(5-fluoro-2-methoxyphenyl)-2-((tetrahydro-2H-pyran-4-yl)oxy)ethyl)-5-methyl-3-((R)-1-methyl-2-oxopyrrolidin-3-yl)-6-(2H-1,2,3-triazol-2-yl)thieno[2,3-d]pyrimidine-2,4(1H,3H)-dione], the minimal inhibitory concentration (MIC) (usually the lowest concentration found to suppress growth) is 0.25 to 1 µg/mL (≈ 0.418 to 1.67 µM) in the experiment with C. albicans ATCC 90028; 0.25 to 1 µg/mL (≈ 0.418 to 1.67 µM) in experiment [1]; 0.25 to 1 µg/mL (≈ 0.418 to 1.67 µM) in the experiment with C. krusei ATCC 6258; over 4.1 µg/mL against Candida glabrata; 0.25 to 1 µg/mL (≈ 0.418 to 1.67 µM) in the experiment on Candida tropicalis; 0.25 to 1 µg/mL (≈ 0.418 to 1.67 µM) in the experiment on Aspergillus fumigatus (setting [2]). The MIC in the experiment on Aspergillus fumigatus (setting [3]) was 0.25 to 1 µg/mL (≈ 0.418 to 1.67 µM). Also, the IC50 at Fungal ACC2 and against Human ACC2 was 2 to 10 nM each time.
For the compound `COc1ccc(F)cc1[C@H](Cn1c(=O)n([C@@H]2CCNC2=O)c(=O)c2c(C)c(-n3nccn3)sc21)OC1CCOCC1` [Compound I-34, 1-((R)-2-(5-fluoro-2-methoxyphenyl)-2-((tetrahydro-2H-pyran-4-yl)oxy)ethyl)-5-methyl-3-((R)-2-oxopyrrolidin-3-yl)-6-(2H-1,2,3-triazol-2-yl)thieno[2,3-d]pyrimidine-2,4(1H,3H)-dione], the MIC in the experiment on C. albicans ATCC 90028 is 0.25 to 1 µg/mL (≈ 0.428 to 1.71 µM); in experiment [1], 0.25 to 1 µg/mL (≈ 0.428 to 1.71 µM); with C. krusei ATCC 6258, 0.25 to 1 µg/mL (≈ 0.428 to 1.71 µM); against Candida glabrata it was over 4.1 µg/mL; with Candida tropicalis, 0.25 to 1 µg/mL (≈ 0.428 to 1.71 µM); with Aspergillus fumigatus (setting [2]), 1.1 to 2 µg/mL (≈ 1.88 to 3.42 µM). In addition, the MIC in the experiment on Aspergillus fumigatus (setting [3]) was in the range of 1.1 to 2 µg/mL (≈ 1.88 to 3.42 µM). Besides, on Human ACC2, the IC50 (in general, the concentration that gives 50% inhibition) is 2 to 10 nM.
As to `COc1ccc(F)cc1[C@H](Cn1c(=O)n(C2CCN(C(C)C)C2=O)c(=O)c2c(C)c(-n3nccn3)sc21)OC1CCOCC1` (stereo partly drawn) [Compound I-12, 1-((R)-2-(5-fluoro-2-methoxyphenyl)-2-((tetrahydro-2H-pyran-4-yl)oxy)ethyl)-3-(1-isopropyl-2-oxopyrrolidin-3-yl)-5-methyl-6-(2H-1,2,3-triazol-2-yl)thieno[2,3-d]pyrimidine-2,4(1H,3H)-dione], the MIC with C. albicans ATCC 90028 is 0.25 to 1 µg/mL (≈ 0.399 to 1.6 µM); in experiment [1], 0.25 to 1 µg/mL (≈ 0.399 to 1.6 µM); in the experiment with C. krusei ATCC 6258, 0.25 to 1 µg/mL (≈ 0.399 to 1.6 µM); against Candida glabrata, over 4.1 µg/mL; with Candida tropicalis, 0.25 to 1 µg/mL (≈ 0.399 to 1.6 µM); with Aspergillus fumigatus (setting [2]) it was 0.25 to 1 µg/mL (≈ 0.399 to 1.6 µM). Besides, the MIC in the experiment on Aspergillus fumigatus (setting [3]) lay within 0.25 to 1 µg/mL (≈ 0.399 to 1.6 µM). Further, the IC50 against Human ACC2 lay within 2 to 10 nM.
On to `CCN1CCC(n2c(=O)c3c(C)c(-n4nccn4)sc3n(C[C@H](OC3CCOCC3)c3cc(F)ccc3OC)c2=O)C1=O` (stereo partly drawn) [Compound I-11, 3-(1-ethyl-2-oxopyrrolidin-3-yl)-1-((R)-2-(5-fluoro-2-methoxyphenyl)-2-((tetrahydro-2H-pyran-4-yl)oxy)ethyl)-5-methyl-6-(2H-1,2,3-triazol-2-yl)thieno[2,3-d]pyrimidine-2,4(1H,3H)-dione], for which the MIC is over 4.1 µg/mL in the experiment on Candida glabrata, 0.25 to 1 µg/mL (≈ 0.408 to 1.63 µM) with Candida tropicalis, 0.25 to 1 µg/mL (≈ 0.408 to 1.63 µM) in the experiment on Aspergillus fumigatus (setting [2]) and 0.25 to 1 µg/mL (≈ 0.408 to 1.63 µM) with Aspergillus fumigatus (setting [3]). Further, the half-maximal inhibitory concentration (IC50) at Human ACC2 fell in the range of 2 to 10 nM.
As to `COc1ccc(F)cc1[C@H](Cn1c(=O)n([C@H]2CCCNC2=O)c(=O)c2c(C)c(-n3nccn3)sc21)OC1CCOCC1` [Compound I-37, 1-((R)-2-(5-fluoro-2-methoxyphenyl)-2-((tetrahydro-2H-pyran-4-yl)oxy)ethyl)-5-methyl-3-((S)-2-oxopiperidin-3-yl)-6-(2H-1,2,3-triazol-2-yl)thieno[2,3-d]pyrimidine-2,4(1H,3H)-dione], the MIC with C. albicans ATCC 90028 is 0.25 to 1 µg/mL (≈ 0.418 to 1.67 µM); in experiment [1] it was 0.25 to 1 µg/mL (≈ 0.418 to 1.67 µM); with C. krusei ATCC 6258, 0.25 to 1 µg/mL (≈ 0.418 to 1.67 µM); against Candida glabrata, over 4.1 µg/mL; with Candida tropicalis it was 0.25 to 1 µg/mL (≈ 0.418 to 1.67 µM); with Aspergillus fumigatus (setting [2]), 1.1 to 2 µg/mL (≈ 1.84 to 3.34 µM). For the same compound, in the experiment on Aspergillus fumigatus (setting [3]), the MIC lay in the range of 1.1 to 2 µg/mL (≈ 1.84 to 3.34 µM). In addition, the concentration for half-maximal inhibition (IC50) on Human ACC2 was 2 to 10 nM.
